# Reference: patent publication US8268847B2, “Therapeutic compositions comprising a specific endothelin receptor antagonist and a PDE5 inhibitor” (Actelion Pharmaceuticals, Ltd., priority 2006, dated 2012)
# “And” between values parts separate entries of the source, which are not always exact repeats. Identical values can stand only once.
# What was measured:
# [1] = system: Dahl salt-sensitive (Dahl-S) rats; assay: Dahl salt-sensitive rat model: blood pressure by telemetry, area between curves (ABC); type: in vivo; conditions: oral, 0 to 72 hours
# Experimental: Dahl Salt-Sensitive Rat Model
# Dahl salt-sensitive (Dahl-S) were purchased from Harlan (Netherlands). The rats were housed by group during the acclimatization period and single-housed after implantation of the telemetry device. All animals were maintained under identical conditions and had free access to normal pelleted rat chow and water. Dahl salt-sensitive rats develop hypertension only upon exposure to salt intake. They were administered a high-salt (8%) chow diet (Purina series 5500). Five weeks after starting salt administration, a telemetry system was implanted under anaesthesia by inhalation of 2.5% isoflurane (in 70% O2+30% N2O). […]
# The compounds were administered at least 2 weeks after telemetry system implantation. […] The acute effects of the compound of formula (I), the compound having PDE5-inhibitory properties and their combination on blood pressure were measured by collecting data at 5-minute intervals up to 72 h after oral administration. Hourly means of blood pressure were calculated for each rat. […] The two curves (blood pressure of the control period and blood pressure of the treatment period) were plotted together and the area between curves (ABC) from 0 to 72 hours was calculated. […]
# [2] = system: spontaneously hypertensive rats (SHR); assay: Spontaneously hypertensive rat model: blood pressure by telemetry, area between curves (ABC); type: in vivo; conditions: oral, 0 to 72 hours
# Experimental: The compounds were administered at least 2 weeks after telemetry system implantation. The compound of formula (I) and the compound having PDE5-inhibitory properties were prepared in 5% arabic gum and administered by oral gavage. The acute effects of the compound of formula (I), the compound having PDE5-inhibitory properties and their combination on blood pressure were measured by collecting data at 5-minute intervals up to 72 h after oral administration. Hourly means of blood pressure were calculated for each rat. Each rat served as its own control, by using the blood pressure data of the last 24 hours before drug administration. The two curves (blood pressure of the control period and blood pressure of the treatment period) were plotted together and the area between curves (ABC) from 0 to 72 hours was calculated. The higher the ABC, the stronger the effect of the item tested for lowering blood pressure.
# Spontaneously Hypertensive Rat Model
# The SHR rats were purchased from Harlan (Netherlands).
compound,measurement,setting,value
CCCNS(=O)(=O)Nc1ncnc(OCCOc2ncc(Br)cn2)c1-c1ccc(Br)cc1 [compound of formula (I)],"area between curves (ABC) of blood pressure, control period vs treatment period","[1]; 0.3 mg/kg, higher ABC = stronger blood pressure lowering",256
same,"area between curves (ABC) of blood pressure, control period vs treatment period",[2]; 0.3 mg/kg,44 and 38
CCCc1nn(C)c2c(=O)[nH]c(-c3cc(S(=O)(=O)N4CCN(C)CC4)ccc3OCC)nc12 [sildenafil],"area between curves (ABC) of blood pressure, control period vs treatment period",[2]; 30 mg/kg,229
CN1CC(=O)N2[C@H](c3ccc4c(c3)OCO4)c3[nH]c4ccccc4c3C[C@@H]2C1=O [tadalafil],"area between curves (ABC) of blood pressure, control period vs treatment period",[1]; 10 mg/kg,310
same,"area between curves (ABC) of blood pressure, control period vs treatment period",[2]; 10 mg/kg,286
